Measurements from patent US11156623B2, “Methods of monitoring safety of quercetin compositions” (PUBLIC JOINT STOCK COMPANY “SCIENTIFIC INDUSTRIAL CENTRE …, priority 2018, dated 2021).
≈ marks a conversion by molar mass, not a printed value. Read-outs that look alike come from different tables or passages of the source.

Tests used:
[1] = test system: Pseudokirchneriella subcapitata; conditions: cited from earlier work
[2] = test system: Pseudokirchneriella subcapitata
[3] = human
Procedure: Potential human toxicity of 2,4,6-THBA can be related to its toxicity based on studies with Daphnia. Toxicity of various compounds in Daphnia (48 h immobilization test) correlated to toxicity in humans (determined as reference dose for human oral exposure, RfD) (Martins et al., 2007).

Daphnia magna [4] = assay: Daphnia magna mobility assay; conditions: 48 h
Procedure: Toxicity is determined using a Daphnia magna mobility assay as described (Kamaya et al., 2005). Neonates (<24 h old) from 2-3-week-old mothers are placed in a 50 ml glass beaker containing 40 ml of a test solution. A sample of solid form quercetin (10%)/PVP (90%) composition containing 2,4,6-trihydroxybenzoic acid is resuspended and introduced at increasing dilutions. All experiments for exposure and controls without chemicals are made in four replicates and performed at 21±0.3° C. under 16 h light:8 h dark photoperiod. Immobility is used as the endpoint for determining acute toxicity; the daphnids showing no movement within 15 s after gentle stirring are defined to be immobile. After 24 and 48 h, the number of immobile daphnids is recorded to determine the concentration able to achieve 50% immobilization and it is indicated as EC50.

HCT-116 human cells = conditions: cited from earlier work
Daphnia magna [5] = conditions: cited from earlier work; for EC50 at 48 h: Daphnia magna mobility
[6] = test system: cyclin-dependent kinases CDK1, 2, 4, 6; conditions: purified CDKs in vitro; cited from earlier work
[7] = test system: MDA-MB231 human breast cancer cells; assay: Cell viability assay (CellTiter 96 AQueous One) in MDA-MB231; format: cell-based; conditions: MDA-MB-231, MDA-MB231, 72 h
Procedure: Toxicity of DB-DBA (2-(3,4-dihydroxybenzoyloxy)-4,6-dihydroxybenzoic acid) was assessed in 96-well plate (Thermo Fisher, Walthman, Mass.) on 1×10^3 MDA-MB231 human breast cancer cells/well. DB-DBA was diluted in to concentrations from 500 to 0 ug/ml. The plate was incubated at 37° C. for 72 h. Cell viability was measured in a CellTiter 96® AQueous One Solution Cell Proliferation Assay (Promega, Madison, Wis.), according to the manufacturer's protocol. The absorbance at 490 nm is determined spectrophotometrically and IC50 was calculated to be 75 microgram/ml.

[8] = test system: human lymphoblastoid TK6 cells; conditions: cited from earlier work
[9] = test system: retinal pigmented epithelial cells (ARPE-19); conditions: ARPE-19 normal cell line; cited from earlier work
[10] = test system: human lymphoblastoid cell line K562; conditions: cited from earlier work
mice = conditions: cited from earlier work
[11] = test system: HeLa, MCF7, HepG2, A549, LNCaP human cell lines; conditions: cited from earlier work
LNCaP human cell line = conditions: 48 h, read-out: EC50, loss of viability; cited from earlier work
OVCAR3 human cell line = conditions: OVCAR3, 48 h; read-out: EC50, loss of viability; cited from earlier work
[12] = cited from earlier work
[13] = Storage stability: degradation products by liquid chromatography with UV detection; format: physicochemical
Procedure: (§1) Methods to detect PCA are known in the art, such as by liquid chromatography with UV detection. For example, a solution containing PCA is subjected to liquid chromatography using gradient elution with the following conditions: stainless steel column with stationary phase end-capped octadecylsilyl silica for chromatography R; size (150×3.9) mm, particle size 5 micron. Mobile phase A: 0.1% phosphoric acid v/v; mobile phase B—methanol; column temperature: 25° C.; flow rate: 1 mL/min.; UV detection at 254 nm. Relative retention time is 1.00 for quercetin, and 0.34 for PCA (FIG. 2). Content of PCA relative to quercetin can be calculated by formula (in percentage): […]
as §1, with “detect 2,4,6-THBA” for “detect PCA”, “containing 2,4,6-THBR” for “containing PCA”, “for 2,4,6-trihydroxybenzoic acid” for “for PCA”, “of 2,4,6-trihydroxybenzoic acid” for “of PCA”
Methods to detect DB-DBA are known in the art, such as by liquid chromatography with UV detection. For example, a solution containing DB-DBA is subjected to liquid chromatography using gradient elution with the following conditions: stainless steel column with stationary phase end-capped octadecylsilyl silica for chromatography R; size (150×3.9) mm, particle size 5 microns. Mobile phase A: 0.1% phosphoric acid v/v; mobile phase B—methanol; column temperature: 25° C.; flow rate: 1 mL/min.; UV detection at 254 nm. Relative retention time is 1.00 for quercetin, and 0.77 for DB-DBA (FIG. 15). Content of DB-DBA relative to quercetin can be calculated by formula (in percentage):
For test solution content of one vial with 70 ml of 96% ethanol was transferred to a 100 ml volumetric flask, diluted to 100 ml with the same solvent and mixed. For reference solution a, 1.0 ml of test solution was placed in a 100 ml volumetric flask, diluted to 100 ml with 96% ethanol and mixed. For reference solution b, 10.0 mg working standard of quercetin for system suitability (containing isorhamnetin and kaempferol, PJSC SIC “Borshchahivskiy CPP”, Kiev, Ukraine) was dissolved in 30 ml of 96% ethanol, diluted to 50 ml with the same solvent and mixed. Chromatography was performed on a using a Dionex UltiMate 3000 HPLC system (Thermo Fisher Scientific, Inc., Waltham, Mass.) with DAD and MS detectors (3200 QTRAP System (AB Sciex LLC, Framingham, Mass.)) connected consecutively using gradient elution with the following conditions: • stainless steel column with stationary phase end-capped octadecylsilyl silica for chromatography; size (150×3.9) mm, particle size 5 microns • Mobile phase A: 1.0 mL of phosphoric acid diluted to 1000 mL with water for chromatography, mixed and degassed; • Mobile phase B: methanol gradient grade; • Column temperature: 25° C. • Flow rate: 1 mL/min.; • Detection at 254 nm; • injection volume: 10 microL.
Inject test solution and reference solution (a). Peaks of quercetin and kaempferol as references were determined by relative retention times of 1.00 and 1.11
Vials containing (group 1) a lyophilized quercetin (10%)/PVP (90%) composition in an air atmosphere and (group 2) vials containing a lyophilized quercetin (10%)/PVP (90%) composition in a nitrogen gas atmosphere were stored at room temperature. Samples were obtained for each group at the indicated time points (0, 3, 6, 9, 12, 18, 24, and 36 months) and assayed for content of protocatechuic acid by chromatography as described above. Data from 3 independent experiments are shown. […]

[14] = humans, cited from earlier work
[15] = 36 months storage at 20-25° C., air

In the case of O=C(O)c1c(O)cc(O)cc1O [2,4,6-THBA, 2,4,6-trihydroxybenzoic acid], the “EC50, suppression of growth” value [1] is given as 0.546 µg/mL, the “toxicity relative to benzoic acid and its other derivatives” value [2] is given as 70 times and the “RfD of 2,4,6-THBA relative to benzoic acid” value [3] is given as “more than 50 times”. The “RfD, estimated from Daphnia EC50” value [3] was 0.02 mg/kg/day, the “toxicity of 2,4,6-THBA relative to quercetin” value [3] was 700 times and the “toxicity relative to benzoic acid” value (Daphnia magna [4]) was “about 500 times”. The “cytotoxicity compared to other salicylic acid metabolites” value (HCT-116 human cells) was “more cytotoxic”, the “LC50 in 48 h” value (Daphnia magna [5]; Daphna magna immobilization test) was 1.7 µg/mL (≈ 9.99 µM) and the “EC50 at 48 h” value (Daphnia magna [5]) was 1.7 µg/mL (≈ 9.99 µM). For the same molecule, the “inhibitory effect on cyclin-dependent kinases CDK1, 2, 4, 6” value [6] was “strong inhibitory effect”.

Molecule O=C(Oc1cc(O)cc(O)c1C(=O)O)c1ccc(O)c(O)c1 [DB-DBA, 2-(3,4-dihydroxybenzoyloxy)-4,6-dihydroxybenzoic acid] has an IC50 [7] of 75 µg/mL (≈ 245 µM).

For O=C(O)c1cc(O)c(O)c(OC(=O)c2cc(O)c(O)c(O)c2)c1 [DGA, digallic acid], the “IC50 by MTT assay” value ([8]; Bhouri et al., 2012a) is listed as 8.5 microgram/ml, the “concentrations causing DNA fragmentation, caspase-3/8 activation and PARP cleavage” value ([8]; TK6) is listed as 2.5-10 microgram/ml and the “IC50, cytotoxicity” value [9] is listed as 47 microgram/mil. For the same molecule, the “concentrations causing DNA fragmentation” value [10] was 200-800 microgram/ml.

In the case of O=C(O)c1ccc(O)c(O)c1 [PCA, 3,4-dihydroxybenzoic acid], the “hepatotoxicity (increase in ALT)” value (mice; acute, 50 mg/kg intraperitoneally) is given as “the same effect”, the “hepatotoxicity (increase in ALT)” value (mice; subchronic, 0.1% in drinking water for 60 days) is given as “causes hepatotoxicity” and the “concentration causing apoptosis (DNA fragmentation, caspase 3 activation)” value [11] is given as 5 to 8 µM. The EC50 (LNCaP human cell line) was 5 µM and the EC50 (OVCAR3 human cell line) was 5 µM.

For O=C(O)c1ccccc1 [benzoic acid], the “RfD / toxicity in humans” value [12] is given as 1 mg/kg/day, the “EC50, suppression of growth” value [1] is given as 36 µg/mL and the “EC50 at 48 h” value (Daphnia magna [5]) is given as 860 µg/mL (≈ 7040 µM).

For O=c1c(O)c(-c2ccc(O)c(O)c2)oc2cc(O)cc(O)c12 [quercetin, 2-(3,4-dihydroxyphenyl)-3,5,7-trihydroxy-4H-chromen-4-one], the “RfD / toxicity in humans” value [12] is listed as “more than 15 mg/kg/day”, the “decrease of 2,4,6-THBA concentration by air substitution with nitrogen gas” value [13] is listed as 7 fold and the protocatechuic acid accumulation ([13]; 3 months storage at 20-25° C., air) is listed as “about 0.1 % (w/w) protocatechuic acid/quercetin”. The “2,4,6-THBA accumulation” value ([13]; 6 months storage at 20-25° C., air) was “about 0.1 % (w/w) 2,4,6-trihydroxybenzoic acid/quercetin”, the protocatechuic acid formation ([13]; 12 months storage, ambient conditions) was “above 0.4 % of quercetin content” and the “2,4,6-THBA formation” value ([13]; 24 months storage, ambient conditions, air) was 0.33 % of quercetin content. The “2,4,6-THBA accumulation” value [13, 15] was “about 0.5 % 2,4,6-trihydroxybenzoic acid/quercetin”, the protocatechuic acid accumulation [13, 15] was “about 0.9 % protocatechuic acid/quercetin” and the “2,4,6-THBA concentration relative to LC50 in 48 h Daphnia immobilization test (lower)” value ([13]; Daphnia) was “more than 3 times”. For the same molecule, the “2,4,6-THBA concentration relative to LC50 in 48 h Daphnia immobilization test (higher)” value ([13]; Daphnia, 24 months) was “about 2 times”, the “2,4,6-THBA concentration” value ([13]; air substituted with nitrogen gas) was 0.5 mg/L and the “2,4,6-THBA formation” value ([13]; air substituted with nitrogen gas (FIG. 19)) was 0.05%. For the same molecule, the “rate of 2,4,6-THBA accumulation” value ([13]; room temperature, air) was ~0.15 % of quercetin (w/w) per 12 months, the “rate of DB-DBA accumulation” value ([13]; room temperature, air) was ~1.25 % of quercetin (w/w) per 12 months and the elimination half-life ([14]; after ingestion in foods or supplements) was 1 to 2 h. For the same molecule, the bioavailability of quercetin [14] was 0-50%.
